From US7989463B2, “Biccyclic compounds as GATA modulators” (Dr. Reddy's Laboratories Limited, priority 2008, dated 2011)

How the values were obtained:
[1] = system: GATA1; assay: GATA Assay: GATA Translucent Reporter Vector luciferase assay in transfected HepG2 cells; type: cell-based, Human; details: luciferase normalized to total protein
Procedure: Human HepG2 (ATCC) cells were grown in Eagle's Minimum Essential Media (MEM) containing 10% heat inactivated Fetal Bovine Serum (FBS) (Invitrogen) and 5 mL Penicillin-Streptomycin (Invitrogen) in T75 flasks (Corning) in a 37° C./5% CO2 tissue culture incubator (Thermo Electron Corporation) prior to the study. 96-well plates (Corning) were seeded in MEM containing 10% FBS to yield ˜50% confluency. The following day, cells were transfected using FuGENE 6 transfection reagent (Roche) and […] GATA Translucent Reporter Vector (Panomics) according the manufacturer's (Roche) protocol and incubated for about 10-19 h. The next day, the cells were treated with equal volumes of vehicle, dimethyl sulfoxide (DMSO) (Hybri-Max Sterile Filtered Sigma Aldrich) or compounds of formula (I) (in DMSO) diluted in MEM containing 1% FBS. The treated cells were incubated about 8-19 h. The next day the treatment media was removed and the cells were lysed and assayed for luciferase activity using the luciferase assay system (Promega) and using the Envision plate reader (Perkin Elmer). The lysates were also used to measure total protein content with the MicroBCA protein assay kit (Pierce) using the Multiskan Ascent plate reader at 570 nm. Luciferase values were normalized to total protein and fold induction was calculated.
Compounds that show an increase of ≧40% in luciferase levels at ≦20 μm concentration were considered as GATA activators.

melting point [°C] | Compound | GATA1 Activation (Fold Change Vs Control) ([1]; 5μ compound) | GATA1 Activation (Fold Change Vs Control) ([1]; 10μ compound)
 | Cn1cc(-c2nc3c(c(Nc4ccc(C5(C(=O)O)CCC5)cc4)n2)CCC3)cn1 [Example 7, 1-{4-[2-(1-methyl-1H-pyrazol-4-yl)-6,7-dihydro-5H-cyclopentapyrimidin-4-ylamino]-phenyl}-cyclobutanecarboxylic acid] | 1.79 | 2.09
165 to 167 | O=C(O)C1(c2ccc(Nc3nc(N4CCC(O)CC4)nc4c3CCC4)cc2)CCC1 [Example 5, 1-{4-[2-(4-hydroxy-piperidin-1-yl)-6,7-dihydro-5H-cyclopentapyrimidin-4-ylamino]-phenyl}-cyclobutanecarboxylic acid] |  | 
 | CC(C)(C)Nc1nc(Nc2ccc(C3(C(=O)O)CCCC3)cc2)nc2c1CCC2 [Example 10, 1-[4-(4-tert-butylamino-6,7-dihydro-5H-cyclopentapyrimidin-2-ylamino)-phenyl]-cyclopentanecarboxylic acid] | 2.07 | 2.43
 | O=C(O)C1(c2ccc(Nc3nc(NC4CCCC4)nc4c3CCC4)cc2)CCC1 [Example 13, 1-[4-(2-cyclopentylamino-6,7-dihydro-5H-cyclopentapyrimidin-4-ylamino)-phenyl]-cyclobutanecarboxylic acid] | 1.94 | 1.67
321 to 325 | O=C(O)C1(c2ccc(Nc3nc(C4CCCC4)nc4c3CCC4)cc2)CCCC1 [Example 1, 1-[4-(2-cyclopentyl-6,7-dihydro-5H-cyclopentapyrimidin-4-ylamino)-phenyl]-cyclopentanecarboxylic acid] |  | 
245 to 247 | O=C(O)C1(c2ccc(Nc3nc(N4CCCC4)nc4c3CCC4)cc2)CCC1 [Example 6, 1-[4-(2-pyrrolidin-1-yl-6,7-dihydro-5H-cyclopentapyrimidin-4-ylamino)-phenyl]-cyclobutanecarboxylic acid] |  | 
 | O=C(O)C1(c2ccc(Nc3nc(Nc4cccc(F)c4)nc4c3CCC4)cc2)CCC1 [Example 12, 1-{4-[2-(3-fluoro-phenylamino)-6,7-dihydro-5H-cyclopentapyrimidin-4-ylamino]-phenyl}-cyclobutanecarboxylic acid] | 3.22 | 3.38
 | CC(=O)c1ccc(-c2nc3c(c(Nc4ccc(C5(C(=O)O)CCC5)cc4)n2)CCC3)cc1 [Example 9, 1-{4-[2-(4-acetyl-phenyl)-6,7-dihydro-5H-cyclopentapyrimidin-4-ylamino]-phenyl}-cyclobutanecarboxylic acid] | 2.90 | 3.50
279 to 281 | O=C(O)C1(c2ccc(Nc3nc(N4CCOCC4)nc4c3CCC4)cc2)CCC1 [Example 4, 1-[4-(2-morpholin-4-yl-6,7-dihydro-5H-cyclopentapyrimidin-4-ylamino)-phenyl]-cyclobutanecarboxylic acid] | 2.45 | 3.45
